In US6013665A, “Method for enhancing the absorption and transport of lipid soluble compounds using structured glycerides” (Abbott Laboratories, priority 1997, dated 2000):
Where two headings read alike, the source gives them in different places.

Experiments:
[1] = cited from earlier work
[2] = rat, in vivo
Protocol: (§1) The results set forth in FIGS. 1-4 are statistically significant at p<0.01 (see *). A two way analysis of variance model was employed for each treatment, lipid type and their interaction effects in the model were used to compare the area under each curve. Models were extended to included contrast statements comparing the physical mix and the structured triglyceride within each treatment group.
(§2) This experiment was conducted to determine if a structured glyceride consisting of a co-randomized MCT/fish oil would enhance the absorption of lipophilic compounds such as vitamin E (tocopherol) and retinol (vitamin A) using a lymph fistula rat model based upon a procedure described by Fujimoto et al., "Effect of Ischemia-Reperfusion on Lipid Digestion and Absorption in Rat Intestine", Am. J. Physiol., 260: G595-G602 (1991), the entire teaching of which is hereby incorporated by reference. This model was designed to represent fat absorption mode of the healthy intestinal tract (i.e., not compromised through disease or ischemic event). The lymph fistula rat model is extremely accurate in measuring and quantitating lipid absorption.
(§3) The physical mix (Part A)and structured triglyceride component (Part B) of Example 1 were used. […].
(§4) Male Sprague Dawley rats weighing between 280 and 330 grams were all fed a normal Purina Rat Chow for one week. Rats were fasted overnight prior to surgery and under anesthesia, a laparotomy was performed, the intestinal lymph duct was cannulated according to the procedure of Tso et al., "The Absorption of Lipid and Lipoprotein Synthesis", Lipid Research Methodology, Chapter 5: 191-216 (1984) Alan R. Liss, Inc., N.Y., N.Y, the entire teaching of which is hereby incorportated by reference. […] A silicon infusion tube (1.6 mm OD) was placed in the stomach for infusion of saline, structured lipid/lipophilic compound or emulsified physical mix/lipophilic compound. The fundic incision was closed by a purse string suture. The animals were allowed to recover for 24 hours before experimental oil/lipophilic compound infusion began.
(§5) Animals were randomly assigned to two groups in this non-injury model. […].
(§6) Lymph was collected in pre-cooled tubes beginning hourly for eight (8) hours after initiation of lipid infusion. At the end of the lipid infusion, the animals were sacrificed by exsanguination.
(§7) Radioactivity was measured in an aqueous miscible scintillant (Poly-Fluor, Packard, Downers Grove, Ill.). Samples were counted for 10 minutes in a liquid scintillation spectrophotometer (LKB Model 1209, Pharmacia, Inc.). Samples were corrected for quenching by reference to a series of ^14 C and ^3 H standards that were progressively quenched.
This experiment was conducted in a manner similar to Example 2 except that the ischemic/reperfusion injury model was used. This model was used to simulate the lipid malabsorption conditions associated with diseases such as Short Bowel Syndrome, Crohn's disease and the like. Animals were divided into two groups and given the physical mix (Group A) or the structured triglyceride component (Group B) of Example 2.

[3] = parameters: species or system Male Sprague Dawley rats; conditions: rat, in vivo
Protocol: as §1, §2, §3, §4, §5, §6, §7
Lymph lipids were extracted and the methyl ester derivatives of the fatty acids were analyzed using a Hewlett Packard Gas Chromatograph, Model 5890A with a capillary column packed with 10% SP-2330 on 80/100 Supelcoport (Supelco, Inc., Bellefonte, Pa.).

[4] = cited from earlier work; remark: listed apart in the source
[5] = in vivo; cited from earlier work
[6] = in vivo; cited from earlier work; remark: listed apart in the source
[7] = rat, in vivo; cited from earlier work

CCCCCCCC/C=C\CCCCCCCC(=O)O [oleic acid]
absorption into the lymphatic system from an emulsion ([1]; rats with bile diversion, emulsion): well absorbed into the lymphatic system

CC1=C(/C=C/C(C)=C/C=C/C(C)=C/CO)C(C)(C)CCC1 [retinol]
amount of retinol to the lymphatic circulation, structured triglyceride component vs physical mixture, end of study (FIG. 3) [2]: more than twice the amount | lymphatic retinol absorption, structured triglyceride component vs physical mixture, initial 3 hour period (FIG. 3) [2]: about equal | retinol absorption, structured triglyceride component over physical mix, after about 3 hours (FIG. 3) [2]: enhancement in the retinol absorption over the physical mix | lymph tocopherol and retinol output with structured glyceride component versus physical mix [3]: increased rapidly and maintained a significantly higher output | lymphatic retinol absorption, structured triglyceride component vs physical mix (FIG. 1) [3]: increased the lymphatic absorption of retinol over the entire 8 hour study period

CCCCCCCC/C=C\CCCCCCCC(=O)OCC(COC(=O)CCCCCCC/C=C\CCCCCCCC)OC(=O)CCCCCCC/C=C\CCCCCCCC [triolein]
amount of lipid transported to the lymph ([4]; lymph fistula rat, same amount of fatty acid infused as triolein or phosphatidylcholine with vitamin E): similar

phosphatidylcholine
amount of lipid transported to the lymph ([4]; rat, in vivo): similar

α-tocopherol
α-tocopherol absorption by rat small intestine with polyunsaturated fatty acids in bile salt micelles [5]: depress α-tocopherol absorption | higher lymph output of the lipophilic compound with structured triglyceride component compared to the corresponding physical mix [2]: ≥ 30% | lymphatic tocopherol absorption, structured triglyceride vs physical mix, after about 2 hours (FIG. 4) [2]: significantly enhanced level of lymphatic tocopherol absorption | tocopherol absorption, structured triglyceride component vs physical mix, initial 2 hour period (FIG. 4) [2]: essentially equal | higher lymph output of the lipophilic compound with structured triglyceride compared to the corresponding physical mix [3]: ≥ 30% | lymph tocopherol and retinol output with structured glyceride component versus physical mix [3]: increased rapidly and maintained a significantly higher output | lymphatic tocopherol absorption, structured glyceride component vs physical mix (FIG. 2) [3]: enhances the lymphatic absorption of tocopherol over the entire 8 hour study period | absorption into the lymphatic system from an emulsion ([1]; rat, in vivo): poorly absorbed from the emulsion | transport of vitamin E into lymph, phosphatidylcholine vs triglyceride infusion ([4]; rat, in vivo): significantly reduced | intestinal absorption of vitamin E with MCT [6]: enhancing effect of MCT on intestinal absorption of vitamin E | gastrointestinal absorption of lecithin-dispersed aqueous preparations of vitamin E with MCT [7]: significantly enhanced the absorption | lymphatic absorption of vitamin E from lecithin-dispersed aqueous preparations [7]: increase the lymphatic absorption of vitamin E
